Measurements taken from patent publication US11730746B2, “17beta-heterocyclyl-digitalis like compounds for the treatment of heart failure” (priority 2018, dated 2023).
Where two headings read alike, the source gives them in different places. Marks after values point to notes of the source that are not given here.

Tests used:
[1] = biological target: T1, dog renal Na,K-ATPase (Canis lupus familiaris, UniProt P50997); experiment: Inhibition of dog renal Na,K-ATPase activity (32P-ATP release); type: biochemical
T1 construct: incubated with 0.3 μg of purified dog kidney enzyme; from tissue; host or cells: dog kidney outer medulla
Description: Kidneys were sliced and the outer medulla was dissected, pooled and suspended (1 g/10 ml) in a sucrose-histidine solution, containing 250 mM sucrose, 30 mM histidine and 5 mM EDTA, pH 7.2 and homogenized. […] The pellet was suspended in the sucrose-histidine buffer and incubated for 20 min with a sodium-dodecyl-sulphate (SDS) solution dissolved in a gradient buffer, containing 25 mM imidazole and 1 mM EDTA, pH 7.5. […] The pellet was suspended in the gradient buffer.
Increasing concentrations of the standard ouabain, or tested compound, were incubated with 0.3 μg of purified dog kidney enzyme for 10 min at 37° C. in 120 μl final volume of a medium, containing 140 mM NaCl, 3 mM MgCl2, 50 mM Hepes-Tris, 3 mM ATP, pH 7.5. […] The inhibitory activity was expressed as percent of the control samples carried out in the absence of ouabain or tested compound.

[2] = biological target: T2, SERCA2a (Canis lupus familiaris, UniProt O46674); experiment: SERCA2a ATPase activity in heart-derived SR microsomes from normal dog; type: biochemical; conditions: for Vmax (SERCA2a ATPase activity): mean ± SD
T2 construct: pre-incubated with 2 μg of microsomes; from tissue; host or cells: dog heart left ventricle, SR microsomes
T2 sequence (O46674 whole entry): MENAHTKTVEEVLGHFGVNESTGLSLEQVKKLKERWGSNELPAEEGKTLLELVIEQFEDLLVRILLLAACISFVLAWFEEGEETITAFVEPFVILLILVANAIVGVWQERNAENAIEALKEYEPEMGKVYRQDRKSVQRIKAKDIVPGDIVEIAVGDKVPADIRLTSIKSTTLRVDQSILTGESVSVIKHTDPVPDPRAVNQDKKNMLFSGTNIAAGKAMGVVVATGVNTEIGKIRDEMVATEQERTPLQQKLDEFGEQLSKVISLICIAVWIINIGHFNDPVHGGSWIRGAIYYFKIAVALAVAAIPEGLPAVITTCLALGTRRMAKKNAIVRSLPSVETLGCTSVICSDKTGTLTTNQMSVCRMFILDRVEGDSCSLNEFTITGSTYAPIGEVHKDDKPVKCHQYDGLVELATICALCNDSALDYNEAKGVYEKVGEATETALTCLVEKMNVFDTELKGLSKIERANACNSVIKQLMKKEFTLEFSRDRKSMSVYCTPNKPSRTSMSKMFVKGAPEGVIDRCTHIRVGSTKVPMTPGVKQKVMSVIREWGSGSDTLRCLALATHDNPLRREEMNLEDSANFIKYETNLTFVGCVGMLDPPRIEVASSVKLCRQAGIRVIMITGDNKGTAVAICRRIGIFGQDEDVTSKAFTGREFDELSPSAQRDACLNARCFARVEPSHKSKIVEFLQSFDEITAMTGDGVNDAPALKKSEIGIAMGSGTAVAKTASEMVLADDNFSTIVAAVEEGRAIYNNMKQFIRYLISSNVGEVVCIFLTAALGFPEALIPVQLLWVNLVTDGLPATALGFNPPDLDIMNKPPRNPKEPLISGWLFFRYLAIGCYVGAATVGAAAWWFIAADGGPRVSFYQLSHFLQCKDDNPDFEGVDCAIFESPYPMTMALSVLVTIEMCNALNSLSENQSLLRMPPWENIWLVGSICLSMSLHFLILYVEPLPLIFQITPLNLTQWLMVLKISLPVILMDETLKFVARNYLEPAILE
Description: Left ventricle tissues were dissected, homogenized in 4 volumes of 10 mM NaHCO3, pH 7, 1 mM PMSF, 10 μg/ml Aprotinin and Leupeptin and centrifuged at 12,000 g for 15 minutes, as published (Nediani C. et al. J Biol Chem. 1996; 271:19066-73). Supernatants were filtered and centrifuged at 100,000 g for 30 min. Contractile proteins were extracted by suspending the pellets with 0.6 M KCl, 30 mM Histidine, pH 7 and further centrifugation at 100,000 g for 30 min. Final pellets were reconstituted with 0.3 M Sucrose, 30 mM Histidine, pH 7.
SERCA2a activity was measured “in vitro” as ^32P-ATP hydrolysis at different Ca^2+ concentrations (100-4000 nM) in the absence and presence of the tested compounds, as described (Micheletti R. et al. Am J Card 2007; 99:24A-32A). Increasing concentrations of each compound (from 1 to 100 nM) were pre-incubated with 2 μg of microsomes for 5 min at 4° C. in 80 μl of a solution containing 100 mM KCl, 5 mM MgCl2, 1 μM A23187, 20 mM Tris, pH 7.5. Then, 20 μl of 5 mM Tris-ATP containing 50 nCi of ^32P-ATP (3-10 Ci/mmol, Perkin Elmer) were added. The ATP hydrolysis was continued for 15 min at 37° C. and the reaction was stopped by acidification with 100 μl of 20% v/v ice-cold perchloric acid. ^32P was separated by centrifugation with activated charcoal (Norit A, SERVA) and the radioactivity was measured. SERCA2a-dependent activity was identified as the portion of total hydrolytic activity inhibited by 10 μM cyclopiazonic acid (Seidler N W. et al. J Biol Chem. 1989; 264:17816-23).
Dose-response curves were fitted by using a sigmoidal curve fitting software and the maximal velocity (Vmax) activity and the Kd Ca^2+ were calculated (Synergy Software KaleidaGraph 3.6).

[3] = system: guinea pig; experiment: Haemodynamics: inotropic and lethal dose in guinea pig; type: in vivo; conditions: i.v. infusion 0.3 mg/kg/min
Description: Guinea-pigs (400-450 g) were anaesthetized with urethane (1.5 g/kg ip). A microtip pressure transducer was introduced into the left ventricle through the right carotid artery to measure ventricular pressure (LVP); the transducer was coupled with a transducer amplifier. Recordings were fed to a polygraph and analyzed. A polythene cannula was inserted into a jugular vein for drug infusion. After a stabilization period, the test substance was injected at the rate of 0.16 ml/min for 90 min (Micheletti R et al. J Pharmacol Exp Ther 2002; 303:592-600).
The following parameters were obtained: heart rate (HR), left ventricular pressure (LVP), maximal velocity of pressure rise (+dP/dtmax) and decay (−dP/dtmax), ECG. For inotropy, the time elapsed until +dP/dtmax increased by 80% was identified in order to determine the ED80 (dose increasing basal +dP/dtmax by 80%). The time to the maximum increase in +dP/dtmax was also identified to determine the maximum effective dose, EDmax. Lusitropy was characterized by the dose inducing the maximum decrease in −dP/dtmax, (EDmax). As indexes of toxicity, the dose administered until the onset of arrhythmias and the dose inducing death (LD) were calculated. The safety ratio for the tested compound was also calculated as the ratio between LD and ED80.

[4] = system: guinea pig isolated cardiomyocytes; experiment: SR Ca2+ uptake function (loading protocol) in isolated ventricular cardiomyocytes; type: cell-based; conditions: 100 nM
Description: The compounds were characterized for their effect on (i) SR Ca^2+ uptake function, (ii) action potential (AP) in myocytes freshly dissociated from guinea-pig ventricles by retrograde coronary perfusion with enzymatic solution (Rocchetti M et al. J Pharmacol Exper Therap 2005; 313(1):207-215).
Drug effects on SR Ca^2+ uptake rate were evaluated with an SR “loading protocol” specifically devised to rule out the contribution of the Na/Ca exchanger (NCX) and to assess the uptake rate starting at low levels of SR Ca^2+ loading. Under voltage-clamp conditions, intracellular Ca^2+ concentration was dynamically measured by epifluorescence (Fluo4-AM). Membrane current, whose time-dependent component mainly reflected ICaL, was simultaneously recorded. The SR loading protocol consisted in emptying the SR (by a brief caffeine pulse) and then progressively refilling it by voltage steps activating Ca^2+ influx through the sarcolemmal Ca^2+ channel (ICaL). NCX was blocked by omission of Na^+ from intracellular and extracellular solutions. The procedure is in agreement with published methods, with minor modifications (Rocchetti M et al. J Pharmacol Exper Therap 2005; 313(1):207-215).
Drug effects on SR Ca^2+ uptake were analysed by considering multiple parameters: 1) the rate at which Ca^2+ transient (CaT) amplitude increased during the loading protocol, which reflects the rate at which the SR refilled and 2) the time constant of cytosolic Ca^2+ decay (Tdecay) within each pulse, reflecting net Ca^2+ transport rate (by SERCA2a) across the SR membrane (a decrease in Tdecay corresponds to enhanced SR Ca^2+ uptake).

[5] = purified dog kidney enzyme, read-out: IC50, inhibition of dog renal Na,K-ATPase

SMILES | IC50 [1] | % increase vs Control (SERCA2a Vmax) ([2]; compound 1 nM) | Vmax (SERCA2a ATPase activity) ([2]; compound 1 nM) | % increase vs Control (SERCA2a Vmax) ([2]; compound 10 nM) | Vmax (SERCA2a ATPase activity) ([2]; compound 10 nM) | IC50 [1, 5] | % increase vs Control (SERCA2a Vmax) ([2]; compound 100 nM) | Vmax (SERCA2a ATPase activity) ([2]; compound 100 nM) | also measured
C[C@]12CC[C@H](O)C[C@H]1CCC1C2CC[C@]2(C)[C@@H](/C=C/c3cc(CN)on3)CC[C@]12O (some centres unmarked) [CVie 110] | 0.33 µM | 19% | 2.924 ± 0.549 (n = 3) μmol/min/mg prot | 18%* | 2.903 ± 0.188 (n = 3) μmol/min/mg prot |  |  |  | 
C[C@]12CC[C@H](O)C[C@H]1CCC1C2CC[C@]2(C)[C@@H](CCc3cc(CCN)on3)CC[C@]12O (some centres unmarked) [CVie 109] |  |  |  | 14% | 2.859 ± 0.504 (n = 4) μmol/min/mg prot | 1 µM | 15%* | 2.889 ± 0.305 (n = 4) μmol/min/mg prot | 
C[C@]12[C@H](O)CC3C(CC[C@@H]4C[C@@H](O)CC[C@]34C)[C@@]1(O)CC[C@@H]2c1csc(N=C(N)N)n1 (stereo partly drawn) [CVie 105, 3β-hydroxy-5β-10β-methyl-12β-hydroxy-13β-methyl-14β-hydroxy-17β-(2-guanidino-thiazol-4-yl)androstane] | 0.53 µM |  |  |  |  |  |  |  | 
C[C@]12CC[C@H](O)C[C@H]1CCC1C2CC[C@]2(C)[C@@H](CCc3cc(CCCN)on3)CC[C@]12O (stereo partly drawn) [CVie 108, 3β-hydroxy-5β-10β-methyl-13β-methyl-14β-hydroxy-17β-((5-(3-aminopropyl)-isoxazol-3-yl)-ethyl)androstane] |  | 15% | 2.94 ± 0.306 (n = 3) μmol/min/mg prot | 16%* | 2.980 ± 0.441 (n = 4) μmol/min/mg prot | 3.3 µM |  |  | 
C[C@]12[C@H](O)CC3C(CC[C@@H]4C[C@@H](O)CC[C@]34C)[C@@]1(O)CC[C@@H]2c1c[nH]cn1 (stereo partly drawn) [CVie 104, 3β-hydroxy-5β-10β-methyl-12β-hydroxy-13β-methyl-14β-hydroxy-17β-(imidazol-4-yl)androstane] |  | 11%* | 1.437 ± 0.158 (n = 4) μmol/min/mg prot | 20%* | 1.551 ± 0.275 (n = 4) μmol/min/mg prot | 1.61 µM |  |  | 
C[C@]12CC[C@H](O)C[C@H]1CCC1C2CC[C@]2(C)[C@@H](c3csc(N=C(N)N)n3)CC[C@]12O (stereo partly drawn) [CVie 102, 3β-hydroxy-5β-10β-methyl-13β-methyl-14β-hydroxy-17β-(2-guanidino-thiazol-4-yl)androstane] | 1.7 µM | 25%* | 2.949 ± 0.321 (n = 6) μmol/min/mg prot | 13%* | 2.660 ± 0.232 (n = 12) μmol/min/mg prot |  |  |  | Dead/treated number [3]: 11/11; ED80 [3]: 3.8 mg/kg; Lethal dose [3]: 12.57 mg/kg; E max % increase in dP/dtmax ([3]; 90 min): 138.3%; ED max ([3]; cumulative dose): 8.6 mg/kg; LD/ED80 ([3]; safety ratio): 5.42; rate of Ca2+ transient (CaT) increment during SR reloading ([4]; FIG. 1A, 1C): increased; time constant of cytosolic Ca2+ decay within each pulse (τdecay) ([4]; FIG. 1B, 1D): reduced
C[C@]12CC[C@H](O)C[C@H]1CC[C@@H]1[C@@H]2C[C@@H](O)[C@]2(C)[C@@H](C3=CC(=O)OC3)CC[C@]12O [DIGOXIGENIN, Digoxigenin, reference compound] | 0.23 µM |  |  |  |  |  |  |  | 
C[C@]12CC[C@H](O)C[C@H]1CCC1C2CC[C@]2(C)[C@@H](c3cc[nH]n3)CC[C@]12O (stereo partly drawn) [CVie 103, 3β-hydroxy-5β-10β-methyl-13β-methyl-14β-hydroxy-17β-(pyrazol-3-yl)androstane] | 4 µM |  |  | 11%* | 2.569 ± 0.278 (n = 7) μmol/min/mg prot |  | 16%* | 2.688 ± 0.285 (n = 7) μmol/min/mg prot | 
C[C@]12CC[C@H](O)C[C@H]1CCC1C2CC[C@]2(C)[C@@H](c3cc(CCCN)on3)CC[C@]12O (stereo partly drawn) [CVie 107, 3β-hydroxy-5β-10β-methyl-13β-methyl-14β-hydroxy-17β-((5-(3-aminopropyl)-isoxazol-3-yl))androstane] |  |  |  | 7% | 2.508 ± 0.339 (n = 3) μmol/min/mg prot | 0.15 µM | 17%* | 2.751 ± 0.171 (n = 3) μmol/min/mg prot | 
C[C@]12CC[C@H](O)C[C@H]1CCC1C2CC[C@]2(C)[C@@H](c3cn(CCCN)cn3)CC[C@]12O (stereo partly drawn) [CVie 106, 3β-hydroxy-5β-10β-methyl-13β-methyl-14β-hydroxy-17β-(N-(3-aminopropyl)-imidazol-4-yl)androstane] |  | 22% * | 3.113 ± 0.157 (n = 3) μmol/min/mg prot | 15% | 2.935 ± 0.403 (n = 3) μmol/min/mg prot | 10 µM |  |  | 
